{
  "source": "patent US11058744B2",
  "about": "“Composition for treating prostate cancer” (GemVax & KAEL Co., Ltd., priority 2013, dated 2021)",
  "key": {"[1]": {"system": "prostate cancer having a hormone tolerance", "details": "Beer et al, 2001; cited from earlier work"}, "LNCaP cell line": {"system": "LNCaP cell line", "assay": "Transwell migration assay on LNCaP cell line", "type": "cell-based, human", "details": "medium containing docetaxel (3 nM), no Pep1", "description": "The effects of Pep1 on cancer cell migration were evaluated by trans-well assay.\nThe cancer cell migration was evaluated by using the reagents and materials and the cell line incubation method which are described in connection with Example 1. A migration assay method used for this experiment is as follows.\nThe LNCaP cell line was incubated on a 6-well plate overnight, and then treated with various concentrations of Pep1 (0, 1, 10, 30 μM) and incubated for 24 hours. Thereafter, the resultant LNCaP cell line was seeded at the cell population of 1×10^4/well on a trans-well plate. Three hours after, the upper compartment of each well was removed, and cells that had migrated downwards were immobilized, stained, and quantified.\nA separate experiment was further performed to identify cell migration when Pep1 was co-administered with docetaxel. The LNCaP cell line was incubated on a 6-well plate overnight, and then, treated with various concentrations of Pep1(0, 1, 3, 10, and 30 μM) and incubated for 24 hours. Additionally, the cell line was incubated in a growth medium containing docetaxel (3 nM) for 48 hours, and then, seeded on a trans-well plate at a cell population of 1×10^4/well. Three hours after, the upper compartment of each well was removed, and cells that had migrated downwards were immobilized, stained, and quantified. […]"}, "prostate cancer": {"system": "prostate cancer", "details": "administered together with docetaxel; Henly et al 2012; cited from earlier work"}},
  "data": [
    {"smiles": "CC(=O)O[C@@]12CO[C@@H]1C[C@H](O)[C@@]1(C)C(=O)[C@H](O)C3=C(C)[C@@H](OC(=O)[C@H](O)[C@@H](NC(=O)OC(C)(C)C)c4ccccc4)C[C@@](O)([C@@H](OC(=O)c4ccccc4)[C@H]21)C3(C)C", "note": "[docetaxel]", "values": [
      {"measurement": "treatment efficiency", "setting": "[1]", "value": "about 40%"},
      {"measurement": "cancer cell migration (migrated cell number)", "setting": "LNCaP cell line", "value": "the cancer cell migration was increased"}
    ]},
    {"smiles": "Nc1cccc2c1CN(C1CCC(=O)NC1=O)C2=O", "note": "(stereo not drawn) [lenalidomide]", "values": [
      {"measurement": "anti-cancer effects", "setting": "prostate cancer", "value": "anti-cancer effects are significantly increased"}
    ]}
  ]
}
